Where two headings read alike, the source gives them in different places.

The source of these data is patent US10245275B2 (ViiV HEALTHCARE UK (NO.4) LIMITED, priority 2014, dated 2019).

Series [1] concerns HIV-1 NL4-3 gag A364V virus. In words: microbe, parasite or virus in culture. The series is classed as cell-based. In a few lines: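 Recombinant NL4-3 reporter virus with Renilla luciferase replacing part of nef, made by transfection of 293T cells. MT-2 cells infected for 4-5 days with serial inhibitor dilutions; antiviral activity quantified by luciferase activity.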
Series [2] deals with WT (wild-type HIV virus; recombinant NL4-3 virus). In words: microbe, parasite or virus in culture. The format is cell-based, HIV-1. The gist of the method: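 MT-2 cells infected 4-5 days with NL4-3 carrying Renilla luciferase in place of part of nef (Gag P373S), virus made by 293T transfection, with serial inhibitor dilutions. Antiviral activity read as luciferase activity by a modified dual-luciferase read-out.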

Series [3] in a line: Rat PO pharmacokinetic study. As to conditions: male, Sprague-Dawley, plasma, oral dose of 5 mg/kg, PEG-400/ethanol (90/10) solution, fasted rats. The format is in vivo. How it is done: Rat Pharmacokinetic Studies:
For the PO pharmacokinetic studies of the compounds in rats, the compounds were each dissolved in PEG-400/ethanol (90/10) as a solution.
Rat. Male Sprague-Dawley rats (300-350 g, Hilltop Lab Animals, Inc., Scottsdale, Pa.) with cannulas implanted in the jugular vein were used. The rats were fasted overnight in the PO pharmacokinetic studies. Blood samples of 0.3 mL were collected from the jugular vein in EDTA-containing microtainer tubes (Becton Dickinson, Franklin Lakes, N.J.), and centrifuged to separate plasma.
In the PO study of the tested compounds, the rats (n=3) received an oral dose of 5 mg/kg of the indicated compound. Serial blood samples were collected before dosing and 15, 30, 45, 60, 120, 240, 360, 480, and 1440 min after dosing.
Quantitation of Compounds in Plasma. Aliquots of plasma samples from rat, studies were prepared for analysis by precipitating plasma proteins with two volumes of acetonitrile containing an internal standard of a similar compound. The resulting supernates were separated from the precipitated proteins by centrifugation for 10 minutes and transferred to autosampler vials. Samples were either prepared manually, or with the use of the Tomtec automated liquid handler. An aliquot of 5 μL was injected for analysis.
The HPLC system consisted of two Shimadzu LC10AD pumps (Columbia, Md.), a Shimadzu SIL-HTC autosampler (Columbia, Md.), and a Hewlett Packard Series 1100 column compartment (Palo Alto, Calif.). The column was a YMC Pro C18 (2.0×50 mm, 3 μm particles, Waters Co., Milford, Mass.), maintained at 60° C. and a flow rate of 0.3 ml/min. The mobile phase consisted of 10 mM ammonium formate and 0.1% formic acid in water (A) and 100% 10 mM ammonium formate and 0.1% formic acid in methanol (B). The initial mobile phase composition was 95% A. After sample injection, the mobile phase was changed to 15% A/85% B over 2 minutes and held at that composition for an additional 1 minute. The mobile phase was then returned to initial conditions and the column re-equilibrated for 1 minute. Total analysis time was 4 minutes.
The HPLC was interfaced to a Micromass Quattro LC. Ultra high purity nitrogen was used as the nebulizing and desolvation gas at flow rates of 100 L/hr for nebulization and 1100 L/hr for desolvation. The desolvation temperature was 300° C. and the source temperature was 150° C. Data acquisition utilized selected reaction monitoring (SRM). Ions representing the (M+H)^+ species for the compound and the internal standard were selected in MS1 and collisionally dissociated with argon at a pressure of 2×10^−3 torr to form specific product ions which were subsequently monitored by MS2.

Series [4] concerns HIV-1 92UG029 (clade A virus). In words: HIV cell culture assay, 92UG029 Gag/Pr recombinant virus in MT-2 cells. The format is cell-based. How it is done:
MT-2 cells and 293T cells were obtained from the NIH AIDS Research and Reference Reagent Program. MT-2 cells were propagated in RPMI 1640 media supplemented with 10% heat-inactivated fetal bovine serum, […]. The 293T cells were propagated in DMEM media supplemented with 10% heat-inactivated fetal bovine serum (FBS), 100 units/mL penicillin G and 100 μg/mL streptomycin. The proviral DNA clone of NL4-3 was obtained from the NIH AIDS Research and Reference Reagent Program. A recombinant NL4-3 virus, in which a section of the nef gene from NL4-3 was replaced with the Renilla luciferase gene, was used as a reference virus. In addition, residue Gag P373 was converted to P373S. Briefly, the recombinant virus was prepared by transfection of the altered proviral clone of NL4-3. Transfections were performed in 293T cells using LipofectAMINE PLUS from Invitrogen (Carlsbad, Calif.), according to manufacturer's instruction. The virus was titered in MT-2 cells using luciferase enzyme activity as a marker. Luciferase was quantitated using the Dual Luciferase kit from Promega (Madison, Wis.), with modifications to the manufacturer's protocol. The diluted Passive Lysis solution was pre-mixed with the re-suspended Luciferase Assay Reagent and the re-suspended Stop & Glo Substrate (2:1:1 ratio). Fifty (50) μL of the mixture was added to each aspirated well on assay plates and luciferase activity was measured immediately on a Wallac TriLux (Perkin-Elmer). Antiviral activities of inhibitors toward the recombinant virus were quantified by measuring luciferase activity in cells infected for 4-5 days with NLRluc recombinants in the presence serial dilutions of the inhibitor.
Determination of EC50 for WT, EC50 for A364V, and EC50 for 92UG029 viruses:
HIV-1 92UG029 was obtained from the NIH (Catalog Number: 1650). This is a subtype A Gag and subtype A Env, X4 (SI) virus from Uganda. Reference: WHO Network for HIV Isolation and Characterization. AIDS Res Hum Retroviruses 10:1359, 1994. The Gag/Pr region from 92UG029 was used to replace that in an HIV-1 NL4-3 virus expressing Renilla luciferase gene.
Both recombinant viruses were used as described above in the HIV cell culture assay for the NL4-3 virus.

Setting [5] is: Human immunodeficiency virus 1, NL43, MT2, read-out: A364V (EC50, uM), Table 1 regular screen, MT-2 cells, luciferase readout.
Setting [6] is: Human immunodeficiency virus 1, NL43, MT2, read-out: EC50 A364V (μM), Table 2, 3× higher viral input.
Where [7] appears, read: Human immunodeficiency virus 1, NL43, MT2, read-out: EC50 WT (μM), Table 2, 3× higher viral input.
Where [8] appears, read: Human immunodeficiency virus 1, NL43, MT2, read-out: WT (EC50, uM), Table 1 regular screen, MT-2 cells, luciferase readout.
Setting [9] is: Human immunodeficiency virus 1, MT2, read-out: 92UG029A Clade T332S/V362I/V370A (EC50, uM).
Setting [10] is: Human immunodeficiency virus 1, MT2, read-out: EC50 92UG029 (μM).

As for `C=C(C)[C@@H]1CC[C@]2(NCCN3CCS(=O)(=O)CC3)CC[C@]3(C)[C@H](CC[C@@H]4[C@@]5(C)CC=C(C6=CCC(CF)(C(=O)O)CC6)C(C)(C)[C@@H]5CC[C@]43C)[C@@H]12` (mixture of isomers) [Example 2, 4-((1R,3aS,5aR,5bR,7aR,11aS,11bR,13aR,13bR)-3a-((2-(1,1-dioxidothiomorpholino)ethyl)amino)-5a,5b,8,8,11a-pentamethyl-1-(prop-1-en-2-yl)-2,3,3a,4,5,5a,5b,6,7,7a,8,11,11a,11b,12,13,13a,13b-octadecahydro-1H-cyclopenta[a]chrysen-9-yl)-1-(fluoromethyl)cyclohex-3-enecarboxylic acid], the EC50 amounted to 0.0847 µM in series [1] (setting [5]); 0.21 µM in series [1] (setting [6]); 0.002 µM in series [2] (setting [7]); 0.00129 µM in series [2] (setting [8]); 0.00461 µM in series [4] (setting [9]); 0.005 µM in series [4] (setting [10]). This compound gave an AUC in series [3] of 7.93 µM·h.
As to `C=C(C)[C@@H]1CC[C@]2(NCCN3CCS(=O)(=O)CC3)CC[C@]3(C)[C@H](CC[C@@H]4[C@@]5(C)CC=C(C6=CC[C@](CF)(C(=O)O)CC6)C(C)(C)[C@@H]5CC[C@]43C)[C@@H]12` [Example 2a, (S)-4-((1R,3aS,5aR,5bR,7aR,11aS,11bR,13aR,13bR)-3a-((2-(1,1-dioxidothiomorpholino)ethyl)amino)-5a,5b, 8,8,11a-pentamethyl-1-(prop-1-en-2-yl)-2,3,3a,4,5,5a,5b,6,7,7a,8,11,11a,11b,12,13,13a,13b-octadecahydro-1H-cyclopenta[a]chrysen-9-yl)-1-(fluoromethyl)cyclohex-3-enecarboxylic acid], the EC50 in series [1] (setting [5]) came to 0.16 µM; in series [1] (setting [6]) it was 0.78 µM; in series [2] (setting [7]) it was 0.002 µM; in series [2] (setting [8]), 0.00198 µM; in series [4] (setting [9]), 0.00706 µM; in series [4] (setting [10]), 0.02 µM. The compound also showed an AUC in series [3] of 7.03 µM·h.
In the case of `C=C(C)[C@@H]1CC[C@]2(NCCN3CCS(=O)(=O)CC3)CC[C@]3(C)[C@H](CC[C@@H]4[C@@]5(C)CC=C(C6=CC[C@@](CF)(C(=O)O)CC6)C(C)(C)[C@@H]5CC[C@]43C)[C@@H]12` [Example 2b, (R)-4-((1R,3aS,5aR,5bR,7aR,11aS,11bR,13aR,13bR)-3a-((2-(1,1-dioxidothiomorpholino)ethyl)amino)-5a,5b,8,8,11a-pentamethyl-1-(prop-1-en-2-yl)-2,3,3a,4,5,5a,5b,6,7,7a,8,11,11a,11b,12,13,13a,13b-octadecahydro-1H-cyclopenta[a]chrysen-9-yl)-1-(fluoromethyl)cyclohex-3-enecarboxylic acid], the EC50 in series [1] (setting [5]) worked out at 0.201 µM; in series [1] (setting [6]), 0.17 µM; in series [2] (setting [7]), 0.003 µM; in series [2] (setting [8]) it was 0.00148 µM; in series [4] (setting [9]), 0.00618 µM; in series [4] (setting [10]), 0.001 µM. Besides, in series [3], the AUC stood at 7.39 µM·h.
Turning to `C=C(C)[C@@H]1CC[C@]2(NCCN3CCS(=O)(=O)CC3)CC[C@]3(C)[C@H](CC[C@@H]4[C@@]5(C)CC=C(C6=CCC(C)(C(=O)O)CC6)C(C)(C)[C@@H]5CC[C@]43C)[C@@H]12` (stereo partly shown) [Compound B, reference compound], the EC50 is 1.3 µM in series [1] (setting [6]), 0.002 µM in series [2] (setting [7]) and 0.03 µM in series [4] (setting [10]). The “fold less potent than Compound 2 vs A364V” value in series [1] (relative to Compound 2) came out at 6 fold. Also, the “potency vs. WT (in words)” value in series [2] (comparative data) is “comparable potency”. Moreover, the AUC in series [3] was 6.46 µM·h. In addition, the “fold less potent than Compound 2 vs 92UG029” value in series [4] (relative to Compound 2) came to 6 fold.
